{
  "source": "patent US8575161B2",
  "about": "“Benzofurane, benzothiophene, benzothiazol derivatives as FXR modulators” (Merck Patent GmbH, priority 2008, dated 2013)",
  "target": "T1, human Farsenoid X Receptor ligand binding domain - GST fusion protein (GST-FXR LBD) (Homo sapiens, UniProt Q96RI1)",
  "T1 construct": "Human FXR-LBD (amino acid 248-476); made in house; host or cells: E. coli BL21",
  "T1 sequence (Q96RI1 248-476 isoform Q96RI1-1)": "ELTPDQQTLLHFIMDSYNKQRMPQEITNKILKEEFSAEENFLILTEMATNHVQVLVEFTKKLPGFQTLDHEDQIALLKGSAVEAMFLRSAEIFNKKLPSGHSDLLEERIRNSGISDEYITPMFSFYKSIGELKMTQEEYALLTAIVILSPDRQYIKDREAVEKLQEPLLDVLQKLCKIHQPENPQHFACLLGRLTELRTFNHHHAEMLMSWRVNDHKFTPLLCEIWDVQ",
  "experiment": "FXR-SRC-1 Cofactor Recruitment Assay (time-resolved fluorescence energy transfer)",
  "type": "biochemical",
  "settings": "SRC-1 peptide recruitment, 1 hour at room temperature",
  "from_the_text": "BIOLOGICAL EXPERIMENTS FXR-SRC-1 Cofactor Recruitment Assay\nGST-LBD is labelled with a europium chelate (donor) via a europium-tagged anti-GST antibody, and the co-activator peptide is labelled with allophycocyanin-APC (acceptor) via a streptavidin-biotin linkage.\nIn the presence of an agonist for the nuclear receptor, the peptide is recruited to the GST-LBD, bringing europium and allophycocyanin into close proximity to enable energy transfer from the europium chelate to the allophycocyanin. Upon excitation of the complex with light at 340 nm, excitation energy absorbed by the europium chelate is transmitted to the allophycocyanin moiety resulting in emission at 665 nm. […] The activity of a nuclear receptor agonist can be measured by determining the ability of a compound to bind the nuclear receptor in this test (EC50) and compare to the ability of reference compound to bind this same nuclear receptor. […]\nA mix without peptide (same than peptide mix were peptide was replaced by water) was also set-up and for each compound (each concentration tested) a basal fluorescence level was determined in order to detect self-fluorescent compounds. […]\nPlates were incubated 1 hour at room temperature and fluorescence was read on a time resolved mode on a Wallac/Perkin Elmer Victor2 counter.\nFor each compound concentration, fluorescent signal ratio: F665/F615×1000 was calculated. […]",
  "data": [
    {"smiles": "O=C(O)c1cc2c(Br)c(N3CCC(N(C(=O)C4CC4)c4ccc(Cl)cc4Cl)CC3)ccc2o1", "note": "[Example 165, 4-Bromo-5-{4-[cyclopropanecarbonyl-(2,4-dichloro-phenyl)-amino]-piperidin-1-yl}-benzofuran-2-carboxylic acid]", "values": [
      {"measurement": "EC50", "result": 106, "unit": "nM"}
    ]}
  ]
}
